The experiment addresses Cyclin-dependent kinase 9 (Homo sapiens, UniProt P50750). As to the kind of experiment: Fluorescent Polarization Assay: The activity of the compounds described in the present invention can be determined by measuring the phosphorylation of a fluorescently-labeled peptide by human CDK9/CyclinT kinase complex by fluorescent polarization using a commercially available IMAP Screening Express Assay Kit (Molecular devices).Test compounds were diluted in 100% DMSO to 5 mM stock concentration, then further dilutions were made in H2O or 100% DMSO to desirable concentrations. Each reaction consisted of 5 nM enzyme: CDK9/CyclinT (Proqinase cat#0371-0345-1), 400 nM TAMRA-Rbtide (synthetic 15-mer peptide derived from human retinoblastoma tumor suppressor protein labeled with TAMRA dye, Genecust Europe), 12 μM ATP (=Kmapp, Sigma-Aldrich) and kinase buffer: 20 mM MOPS pH 7 (Sigma-Aldrich), 1 mM DTT (Sigma-Aldrich), 10 mM MgCl2 (Sigma-Aldrich), 0.01% Tween 20 (Sigma-Aldrich).For each reaction, 4 or 6 μl containing TAMRA-Rbtide, ATP and kianse buffer were combined with 2 μl diluted compound in H2O or 0.028 μl compound in 100% DMSO. The kinase reaction was started by the addition of 2 μl diluted enzyme.

Experimental findings from ChEMBL document CHEMBL5726104, “4,6-disubstituted aminopyrimidine derivatives have anti-HIV activity” (2017) are described below.

Some results are limits rather than exact numbers.

Cyclin-dependent kinase 9, sequence (P50750 whole entry): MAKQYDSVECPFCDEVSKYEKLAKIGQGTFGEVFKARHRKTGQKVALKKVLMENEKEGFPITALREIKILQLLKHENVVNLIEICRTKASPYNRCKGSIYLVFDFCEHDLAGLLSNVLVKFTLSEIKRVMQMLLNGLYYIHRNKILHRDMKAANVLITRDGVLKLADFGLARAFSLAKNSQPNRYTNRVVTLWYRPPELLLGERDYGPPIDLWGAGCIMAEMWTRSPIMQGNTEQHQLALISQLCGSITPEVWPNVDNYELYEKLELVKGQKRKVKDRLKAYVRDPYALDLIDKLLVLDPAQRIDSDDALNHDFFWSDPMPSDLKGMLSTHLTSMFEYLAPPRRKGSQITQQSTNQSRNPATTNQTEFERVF

The IC50 is the concentration needed to halve the response being measured. Regarding `COc1ccccc1-c1cc(Nc2ccc(N3CCN(C)CC3)c(CO)c2)ncn1`, the IC50 is < 0.1 µM.
As for `COc1ccc(Nc2cc(-c3ccccc3OC)ncn2)cc1NS(C)(=O)=O`, the IC50 was < 0.1 µM.
The figure for `COc1ccc(Nc2cc(-c3ccccc3OCc3ccccc3)ncn2)cc1[N+](=O)[O-]` is < 10 µM; for `COc1cccc(-c2cc(Nc3ccc(OC)c([N+](=O)[O-])c3)ncn2)c1` it is > 10 µM.
